Test results from paper PMC10054477, “Design, Synthesis, and Biological Evaluation of Sulfonamide Methoxypyridine Derivatives as Novel PI3K/mTOR Dual Inhibitors” (Pharmaceuticals, 2023).

Columns and labels:
HCT-116 cells = assay: CCK-8 cell viability assay, HCT-116; assay type: cell-based; conditions: Homo sapiens, mean (n = 3)
Experimental: (§1) MCF-7 and HCT-116 cells were purchased from the Meilunbio Biotechnology Co., Ltd. (Dalian, China). Cells were cultured at 37 °C with 5% CO2, using DMEM or RPMI 1640 medium (Meilunbio, Dalian, China) with 10% (v/v) fetal bovine serum (Gibco, San Diego, CA, USA) and 1% (v/v) penicillin and streptomycin (Meilunbio, Dalian, China). CCK-8 assay was used to determine the inhibitory effect in vitro. In short, cells were incubated into 96-well plates at the rate of 5000 cells per well. After 24 h of incubation, 100 μL medium was added, which contained a specific concentration of the test compound. After 72 h, 10 μL CCK-8 regent was added and the plate was incubated at 37 °C, 5% CO2 for 1 h. The optical density of each hole at 450 nm was read by a BioTek TS-800 microplate reader. GraphPad Prism 9.3.1 software was used to calculate the IC50 value.

MCF-7 cells = assay: CCK-8 cell viability assay, MCF-7; assay type: cell-based; conditions: Homo sapiens, MCF7, 72 h, mean (n = 3)
Experimental: as §1

PI3Kα = biological target: T1, PI3Kα (Homo sapiens, UniProt P42336); assay: ADP-Glo kinase assay, PI3Kα enzyme inhibition; assay type: biochemical; conditions: at 1 nM
T1 construct: purchased SignalChem P27-122DH
T1 sequence (P42336 whole entry): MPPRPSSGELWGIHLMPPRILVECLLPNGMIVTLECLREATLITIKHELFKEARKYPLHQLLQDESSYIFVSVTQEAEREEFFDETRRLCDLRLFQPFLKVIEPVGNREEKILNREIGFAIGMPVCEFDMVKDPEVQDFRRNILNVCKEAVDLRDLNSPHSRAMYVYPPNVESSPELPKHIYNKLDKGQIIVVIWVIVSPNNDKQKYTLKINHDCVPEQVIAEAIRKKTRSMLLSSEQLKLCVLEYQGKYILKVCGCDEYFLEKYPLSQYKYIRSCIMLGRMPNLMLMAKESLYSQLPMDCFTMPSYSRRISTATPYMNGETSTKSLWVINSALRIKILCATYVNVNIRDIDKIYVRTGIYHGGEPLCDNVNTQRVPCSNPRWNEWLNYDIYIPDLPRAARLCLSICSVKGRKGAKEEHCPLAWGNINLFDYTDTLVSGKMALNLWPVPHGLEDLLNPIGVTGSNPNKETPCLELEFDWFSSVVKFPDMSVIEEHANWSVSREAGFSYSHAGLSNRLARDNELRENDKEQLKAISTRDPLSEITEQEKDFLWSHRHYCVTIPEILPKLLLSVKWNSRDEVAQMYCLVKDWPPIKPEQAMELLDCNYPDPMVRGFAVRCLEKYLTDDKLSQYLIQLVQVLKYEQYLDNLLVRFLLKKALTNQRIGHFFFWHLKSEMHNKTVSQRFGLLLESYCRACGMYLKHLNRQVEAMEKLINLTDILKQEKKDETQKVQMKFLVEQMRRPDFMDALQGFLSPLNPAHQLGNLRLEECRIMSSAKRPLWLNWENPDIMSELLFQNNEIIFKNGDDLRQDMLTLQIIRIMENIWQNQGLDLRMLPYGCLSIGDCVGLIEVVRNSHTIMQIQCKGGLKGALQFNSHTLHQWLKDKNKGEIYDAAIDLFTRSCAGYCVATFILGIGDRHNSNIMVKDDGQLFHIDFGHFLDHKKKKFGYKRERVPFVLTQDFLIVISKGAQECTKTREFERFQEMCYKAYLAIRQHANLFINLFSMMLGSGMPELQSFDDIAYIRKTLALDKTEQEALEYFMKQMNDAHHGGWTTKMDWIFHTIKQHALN
T1 sequence (P27986 whole entry partner): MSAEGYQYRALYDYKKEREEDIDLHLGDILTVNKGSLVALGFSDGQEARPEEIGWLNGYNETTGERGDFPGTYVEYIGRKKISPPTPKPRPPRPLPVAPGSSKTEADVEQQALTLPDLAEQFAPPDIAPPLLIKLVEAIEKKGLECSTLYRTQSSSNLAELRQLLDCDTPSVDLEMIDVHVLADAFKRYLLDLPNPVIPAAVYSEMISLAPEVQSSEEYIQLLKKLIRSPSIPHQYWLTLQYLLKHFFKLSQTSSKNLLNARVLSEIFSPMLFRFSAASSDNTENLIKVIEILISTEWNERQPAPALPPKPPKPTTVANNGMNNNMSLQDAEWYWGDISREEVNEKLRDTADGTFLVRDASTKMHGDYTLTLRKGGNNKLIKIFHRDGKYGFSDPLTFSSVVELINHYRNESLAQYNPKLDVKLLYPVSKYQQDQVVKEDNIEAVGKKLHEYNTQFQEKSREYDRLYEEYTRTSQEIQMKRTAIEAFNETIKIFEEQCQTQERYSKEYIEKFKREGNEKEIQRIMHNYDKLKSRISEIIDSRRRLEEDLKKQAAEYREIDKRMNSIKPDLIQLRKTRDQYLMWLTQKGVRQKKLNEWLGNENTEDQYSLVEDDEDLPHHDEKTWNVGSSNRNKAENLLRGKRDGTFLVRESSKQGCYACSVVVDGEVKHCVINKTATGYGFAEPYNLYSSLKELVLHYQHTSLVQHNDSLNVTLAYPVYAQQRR
Experimental: The enzymatic inhibitory assays of all target compounds against PI3Kα were performed with the ADP-Glo assay (Promega, Madison, WI, USA, catalog No. V9102/3). Briefly, compounds were continuously diluted to a certain concentration. […] The mixture was added to a 96-well plate and incubated in a dark place at ambient temperature for 40 min. Then, the kinase reaction was stopped by adding of ADP-Glo reagent and the plate was incubated again at ambient temperature for another 40 min. The kinase detection reagent was added and the signal was collected via PerkinElmer Envision plate reader (PE, Boston, MA, USA).

IC50 (HCT-116 cells; Table 2, 72 h)	IC50 (MCF-7 cells; Table 2)	inhibition at 0.001 µM (PI3Kα; Table 2)	SMILES	other results
> 1 µM	> 1 µM	–	COCCCNc1ncnc2ncc(-c3cnc(OC)c(NS(=O)(=O)c4ccc(F)cc4F)c3)cc12 [17i, N-(2-methoxy-5-(4-((3-methoxypropyl)amino)pyrido[2,3-d]pyrimidin-6-yl)pyridin-3-yl)-2,4-difluorobenzenesulfonamide]	–
0.47 ± 0.17 µM	0.63 ± 0.12 µM	25%	COc1ncc(-c2cnc3ncnc(NCC4CC4)c3c2)cc1NS(=O)(=O)c1ccc(F)cc1F [17l, N-(5-(4-((cyclopropylmethyl)amino)pyrido[2,3-d]pyrimidin-6-yl)-2-methoxypyridin-3-yl)-2,4-difluorobenzenesulfonamide]	–

Further lines, the compound ahead of its results:

SMILES	IC50 (HCT-116 cells; Table 2, 72 h)	IC50 (MCF-7 cells; Table 2)	inhibition at 0.001 µM (PI3Kα; Table 2)	other results
COc1ncc(-c2cnc3ncnc(NCCN4CCOCC4)c3c2)cc1NS(=O)(=O)c1ccc(F)cc1F [17g, N-(2-methoxy-5-(4-((2-morpholinoethyl)amino)pyrido[2,3-d]pyrimidin-6-yl)pyridin-3-yl) -2,4-difluorobenzenesulfonamide]	> 1 µM	> 1 µM	11%	–
COc1ncc(-c2ccc3c(c2)sc2c(NCCCN4CCOCC4)ncnc23)cc1NS(=O)(=O)c1ccc(F)cc1F [11j, N-(2-methoxy-5-(4-((3-morpholinopropyl)amino)benzo[4,5]thieno[3,2-d]pyrimidin-7-yl)pyridin-3-yl)-2,4-difluorobenzenesulfonamide]	–	–	–	IC50 (HCT-116 cells; Table 1, 72 h): > 1 µM; IC50 (MCF-7 cells; Table 1): > 1 µM; inhibition at 0.001 µM (PI3Kα; Table 1): 10%
COc1ncc(-c2ccc3nccc(-c4ncc(C(=O)NCCc5ccc(Cl)cc5)o4)c3c2)cc1NS(=O)(=O)c1ccc(F)cc1F [22l, N-(4-chlorophenethyl)-2-(6-(5-((2,4-difluorophenyl)sulfonamido)-6-methoxypyridin-3-yl)quinolin-4-yl)oxazole-5-carboxamide]	–	–	–	IC50 (HCT-116 cells; Table 3, 72 h): > 1 µM; IC50 (MCF-7 cells; Table 3): > 1 µM; inhibition at 0.001 µM (PI3Kα; Table 3): 15%
COc1ncc(-c2ccc3c(c2)sc2c(NCCN(C)C)ncnc23)cc1NS(=O)(=O)c1ccc(F)cc1F [11h, N-(5-(4-((2-(dimethylamino)ethyl)amino)benzo[4,5]thieno[3,2-d]pyrimidin-7-yl)-2-methoxypyridin-3-yl)-2,4-difluorobenzenesulfonamide]	–	–	–	IC50 (HCT-116 cells; Table 1, 72 h): 0.56 ± 0.1 µM; IC50 (MCF-7 cells; Table 1): 0.7 ± 0.21 µM; inhibition at 0.001 µM (PI3Kα; Table 1): 12%
COc1ncc(-c2cnc3ncnc(N4CCOCC4)c3c2)cc1NS(=O)(=O)c1ccc(F)cc1F [17e, N-(2-methoxy-5-(4-morpholinopyrido[2,3-d]pyrimidin-6-yl)pyridin-3-yl)2,4-difluorobenzenesulfonamide]	0.64 ± 0.2 µM	0.92 ± 0.41 µM	36%	–
CCCCNc1ncnc2ncc(-c3cnc(OC)c(NS(=O)(=O)c4ccc(F)cc4F)c3)cc12 [17c, N-(5-(4-(butylamino)pyrido[2,3-d]pyrimidin-6-yl)-2-methoxypyridin-3-yl)-2,4-difluorobenzenesulfonamide]	0.83 ± 0.25 µM	> 1 µM	21%	–
COc1ncc(-c2cnc3ncnc(N4CCC(C)CC4)c3c2)cc1NS(=O)(=O)c1ccc(F)cc1F [17f, N-(2-methoxy-5-(4-(4-methylpiperidin-1-yl)pyrido[2,3-d]pyrimidin-6-yl)pyridin-3-yl)-2,4-difluorobenzenesulfonamide]	0.51 ± 0.25 µM	0.86 ± 0.3 µM	11%	–
COc1ccc(CCNC(=O)c2cnc(-c3ccnc4ccc(-c5cnc(OC)c(NS(=O)(=O)c6ccc(F)cc6F)c5)cc34)o2)cc1 [22k, 2-(6-(5-((2,4-difluorophenyl)sulfonamido)-6-methoxypyridin-3-yl)quinolin-4-yl)-N-(4-methoxyphenethyl)oxazole-5-carboxamide]	–	–	–	IC50 (HCT-116 cells; Table 3, 72 h): > 1 µM; IC50 (MCF-7 cells; Table 3): > 1 µM; inhibition at 0.001 µM (PI3Kα; Table 3): 22%
COc1ncc(-c2ccc3c(c2)sc2c(N4CCC(C)CC4)ncnc23)cc1NS(=O)(=O)c1ccc(F)cc1F [11b, N-(2-methoxy-5-(4-(4-methylpiperidin-1-yl)benzo[4,5]thieno[3,2-d]pyrimidin-7-yl)pyridin-3-yl) 2,4-difluorobenzenesulfonamide]	–	–	–	IC50 (HCT-116 cells; Table 1, 72 h): > 1 µM; IC50 (MCF-7 cells; Table 1): > 1 µM; inhibition at 0.001 µM (PI3Kα; Table 1): 10%
